Source: patent publication US20210290576A1, “STRUCTURALLY MODIFIED FATTY ACIDS FOR IMPROVING GLYCEMIC CONTROL AND TREATING INFLAMMATORY BOWEL DISEASE” (NORTHSEA THERAPEUTICS B.V., priority 2018, published 2021)
Read-outs that look alike come from different tables or passages of the source.

Legend:
[1] = tested on: active GLP-1; assay: Active GLP-1 during an oral glucose tolerance test (OGTT) and at 24 h in lean male SPD rats; type: in vivo, Sprague-Dawley (SPD) rats
Protocol: (§1) Evaluation of the Acute Effects of Compound a and Compound B Upon Active GLP-1 wconcentrations during an oral glucose tolerance test (OGTT) and at 24 h in lean male SPD Rats
(§2) To establish the acute effects of oral administration of Compound A and Compound B upon active GLP-1 and insulin concentrations, lean (about 300 g) male Sprague-Dawley (SPD) rats were divided into groups (n=6-8) and fed 74 and 84 mg/kg body weight of Compound A or Compound B respectively, either with or without concurrent administration of a dipeptidyl peptidase 4 (DPP-4) inhibitor 60 minutes prior to an oral glucose tolerance test (OGTT) as outlined below. Parallel groups receiving either corn oil alone (corn oil+vehicle, n=10) or corn oil and a DPP-4 inhibitor (“DPP-4 i”) (corn oil+(DPP-4 i), n=10) were included as controls. The DPP-4 inhibitor was linagliptin.
(§3) A second oral dose of 74 and 84 mg/kg bodyweight of Compound A or Compound B respectively was administered at 240 minutes and ad lib feeding was initiated. A second dose of DPP-4 inhibitor was administered at 480 mins prior to lights out. Blood samples were collected at 24 h for measurement of active GLP-1 and insulin. All values are mean, figures depict mean values (SEM).

[2] = tested on: plasma insulin; assay: Plasma insulin at 24 h after OGTT in lean male SPD rats; type: in vivo, Sprague-Dawley (SPD) rats; conditions: non-significant
Protocol: as §1, §2, §3

[3] = tested on: ob/ob mice, T2DM rodent model; assay: Glucose tolerance after 21-day treatment in high-fat diet fed ob/ob mice; type: in vivo; conditions: 112 mg/kg once daily via diet, 21 days
Protocol: This study was carried out to assess the effects of chronic treatment with Compound B or Compound A on glucose tolerance in a T2DM rodent model.
For assessing the effects of Compound A, ob/ob mice were fed a high-fat diet (comprising 2% cholesterol, 40% fat (containing 18% trans-fatty acids), 20% fructose) for 15 weeks starting at age 5 weeks. […] After 21 days the mice received a 2 g/kg oral glucose load. After the oral glucose load, plasma glucose was measured at multiple time points from 0-240 minutes.

[4] = tested on: ob/ob mice, rodent model of T2DM; assay: Oral glucose (2 g/kg) tolerance test after 5 weeks of treatment in ob/ob mice; type: in vivo; conditions: 15, 45 and 135 mg/kg bw/d
Protocol: Mice were fed a standard low-fat (7% w/w fat) diet. After 4-weeks, the mice were fasted for 4 hours and the effects of Compound A were assessed. Assessment of the effects of Compound A included basal levels of blood glucose, plasma insulin, HbA1c levels, and homeostatic model assessment of insulin resistance (HOMA-IR). HOMA-IR is an assessment of insulin resistance and is calculated by the following formula: fasting insulin (micro U/L)×fasting glucose […]/22.5.
After 5 weeks, an oral glucose (2 g/kg) tolerance test was performed after a 4 hour fast.

[5] = tested on: atherogenic lipids; conditions: humans; cited from earlier work
[6] = tested on: atherogenic lipids; conditions: APOE*3.CETP mice; cited from earlier work

CC#CCn1c(N2CCC[C@@H](N)C2)nc2c1c(=O)n(Cc1nc(C)c3ccccc3n1)c(=O)n2C [DPP4 inhibitor, linagliptin, reference compound]
active GLP-1 (AUC 0-60 mins) versus corn oil alone ([1]; corn oil+DPP4 inhibitor alone): no significant effect
active GLP-1 concentrations at 24 h versus corn oil alone ([1]; corn oil+DPP4 inhibitor alone): no significant effect

CC/C=C\C/C=C\C/C=C\C/C=C\C/C=C\CCCCOC(CC)C(=O)O (stereo not shown) [Compound A, 2-(((5Z,8Z,11Z,14Z,17Z)-icosa-5,8,11,14,17-pentaen-1-yl)oxy)butanoic acid]
active GLP-1 concentrations at 24 h versus corn oil+vehicle ([1]; in combination with DPP4 inhibitor (linagliptin), Compound A 74 mg/kg, Compound B 84 mg/kg, two oral doses): significantly (p<0.05) increased
increase of plasma insulin concentrations at 24 h versus corn oil+vehicle and corn oil+DPP4 inhibitor ([2]; compound alone): 25%
increase of plasma insulin concentrations at 24 h versus corn oil+vehicle and corn oil+DPP4 inhibitor ([2]; in combination with DPP4 inhibitor (linagliptin)): 25%
glucose tolerance compared to vehicle ([3]; 2 g/kg oral glucose load): significantly improved glucose tolerance from 15 minutes through 90 minutes
AUC glucose ([3]; p<0.01): significantly reduced
glucose levels in oral glucose tolerance test [4]: dose-dependent response in lowering glucose levels
atherogenic lipids [5]: significantly reduce atherogenic lipids
atherogenic lipids [6]: significantly reduce atherogenic lipids
